Data: US9777003B2, “Tricyclic heterocycles as bet protein inhibitors” (Incyte Corporation, priority 2013, dated 2017)
pIC50: −log10 of the molar value.

Tests used:
BRD4-BD1 = BRD4-BD1 (Homo sapiens (Human), UniProt O60885); experiment: BRD4 AlphaScreen assay, BRD4-BD1; type: binding; settings: biotin-labeled tetra-acetylated histone H4 peptide, 75 min, room temperature, read-out: BRD4 BD-1 enzyme IC50
How it was run: (§1)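 Displacement of 50 nM biotinylated tetra-acetylated H4 peptide (H4Ac4) from BRD4-BD1 (3.8 nM) or BRD4-BD2 (20 nM) in HEPES pH 7.4, 100 mM NaCl, CHAPS, BSA; 75 min at room temperature. Streptavidin donor/GSH acceptor beads were added for a further 75 min in the dark; IC50 from percent control activity versus log concentration.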

BRD4-BD2 = BRD4-BD2 (Homo sapiens (Human), UniProt O60885); experiment: BRD4 AlphaScreen assay, BRD4-BD2; type: binding; settings: biotin-labeled tetra-acetylated histone H4 peptide, 75 min, room temperature, read-out: BRD4 BD-2 enzyme IC50
How it was run: as §1

| pIC50 (BRD4-BD1) | pIC50 (BRD4-BD2) | SMILES |
| --- | --- | --- |
| ≥ 7.00 | ≥ 7.00 | Cc1nnc2ccc3c(cc(-c4cn(C)cn4)n3Cc3ccccc3)n12 [Example 70, 6-benzyl-1-methyl-7-(1-methyl-1H-imidazol-4-yl)-6H-pyrrolo[2,3-e][1,2,4]triazolo[4,3-a]pyridine] |
| 6.00 to 7.00 | 5.00 to 6.00 | Cc1nnc2ccc3c(cc(-c4cncn4C)n3Cc3ccccc3)n12 [Example 71, 6-benzyl-1-methyl-7-(1-methyl-1H-imidazol-5-yl)-6H-pyrrolo[2,3-e][1,2,4]triazolo[4,3-a]pyridine] |
| ≥ 7.00 | ≥ 7.00 | Cc1nnc2ccc3c(cc(-c4ccsc4)n3Cc3ccccc3)n12 [Example 72, 6-benzyl-1-methyl-7-(3-thienyl)-6H-pyrrolo[2,3-e][1,2,4]triazolo[4,3-a]pyridine] |
| 6.00 to 7.00 | ≥ 7.00 | Cc1nnc2ccc3c(cc(-c4cccs4)n3Cc3ccccc3)n12 [Example 73, 6-benzyl-1-methyl-7-(2-thienyl)-6H-pyrrolo[2,3-e][1,2,4]triazolo[4,3-a]pyridine] |
| ≥ 7.00 | ≥ 7.00 | Cc1nnc2ccc3c(cc(-c4c[nH]cn4)n3Cc3ccccc3)n12 [Example 74, 6-benzyl-7-(1H-imidazol-4-yl)-1-methyl-6H-pyrrolo[2,3-e][1,2,4]triazolo[4,3-a]pyridine] |
| ≥ 7.00 | ≥ 7.00 | Cc1nnc2ccc3c(cc(-c4cn(CCN5CCOCC5)cn4)n3Cc3ccccc3)n12 [Example 75, 6-benzyl-1-methyl-7-[1-(2-morpholin-4-ylethyl)-1H-imidazol-4-yl]-6H-pyrrolo[2,3-e][1,2,4]triazolo[4,3-a]pyridine] |
| ≥ 7.00 | ≥ 7.00 | Cc1nnc2ccc3c(cc(-c4ccn(C)n4)n3Cc3ccccc3)n12 [Example 76, 6-benzyl-1-methyl-7-(1-methyl-1H-pyrazol-3-yl)-6H-pyrrolo[2,3-e][1,2,4]triazolo[4,3-a]pyridine] |
| ≥ 7.00 | ≥ 7.00 | Cc1nnc2ccc3c(cc(-c4ccn(CCN5CCOCC5)n4)n3Cc3ccccc3)n12 [Example 77, 6-benzyl-1-methyl-7-[1-(2-morpholin-4-ylethyl)-1H-pyrazol-3-yl]-6H-pyrrolo[2,3-e][1,2,4]triazolo[4,3-a]pyridine] |
| ≥ 7.00 | ≥ 7.00 | Cc1nnc2ccc3c(cc(-c4ccn(CCC#N)n4)n3Cc3ccccc3)n12 [Example 78, 3-[3-(6-benzyl-1-methyl-6H-pyrrolo[2,3-e][1,2,4]triazolo[4,3-a]pyridin-7-yl)-1H-pyrazol-1-yl]propanenitrile] |
| ≥ 7.00 | ≥ 7.00 | CCn1ccc(-c2cc3c(ccc4nnc(C)n43)n2Cc2ccccc2)n1 [Example 79, 6-benzyl-7-(1-ethyl-1H-pyrazol-3-yl)-1-methyl-6H-pyrrolo[2,3-e][1,2,4]triazolo[4,3-a]pyridine] |
| ≥ 7.00 | ≥ 7.00 | CCn1cnc(-c2cc3c(ccc4nnc(C)n43)n2Cc2ccccc2)c1 [Example 80, 6-benzyl-7-(1-ethyl-1H-imidazol-4-yl)-1-methyl-6H-pyrrolo[2,3-e][1,2,4]triazolo[4,3-a]pyridine] |
| ≥ 7.00 | ≥ 7.00 | Cc1nnc2ccc3c(cc(-c4cn(CCC#N)cn4)n3Cc3ccccc3)n12 [Example 81, 3-[4-(6-benzyl-1-methyl-6H-pyrrolo[2,3-e][1,2,4]triazolo[4,3-a]pyridin-7-yl)-1H-imidazol-1-yl]propanenitrile] |
| ≥ 7.00 | ≥ 7.00 | CNC(=O)c1cc2c(ccc3nnc(C)n32)n1Cc1ccccc1 [Example 82, 6-benzyl-N,1-dimethyl-6H-pyrrolo[2,3-e][1,2,4]triazolo[4,3-a]pyridine-7-carboxamide] |
| ≥ 7.00 | ≥ 7.00 | CCCNC(=O)c1cc2c(ccc3nnc(C)n32)n1Cc1ccccc1 [Example 83, 6-benzyl-1-methyl-N-propyl-6H-pyrrolo[2,3-e][1,2,4]triazolo[4,3-a]pyridine-7-carboxamide] |
| 6.00 to 7.00 | 6.00 to 7.00 | Cc1nnc2ccc3c(cc(C(=O)NC(C)C)n3Cc3ccccc3)n12 [Example 84, 6-benzyl-N-isopropyl-1-methyl-6H-pyrrolo[2,3-e][1,2,4]triazolo[4,3-a]pyridine-7-carboxamide] |
| ≥ 7.00 | ≥ 7.00 | Cc1nnc2ccc3c(cc(C(=O)NC4CCC4)n3Cc3ccccc3)n12 [Example 85, 6-benzyl-N-cyclobutyl-1-methyl-6H-pyrrolo[2,3-e][1,2,4]triazolo[4,3-a]pyridine-7-carboxamide] |

| pIC50 (BRD4-BD1) | pIC50 (BRD4-BD2) | SMILES |
| --- | --- | --- |
| 6.00 to 7.00 | 6.00 to 7.00 | Cc1nnc2ccc3c(cc(C(=O)N[C@H](C)C(F)(F)F)n3Cc3ccccc3)n12 [Example 86, 6-benzyl-1-methyl-N-[(1R)-2,2,2-trifluoro-1-methylethyl]-6H-pyrrolo[2,3-e][1,2,4]triazolo[4,3-a]pyridine-7-carboxamide] |
| 6.00 to 7.00 | ≥ 7.00 | Cc1nnc2ccc3c(cc(-c4ccn(CCN(C)C)n4)n3Cc3ccccc3)n12 [Example 89, 2-[3-(6-benzyl-1-methyl-6H-pyrrolo[2,3-e][1,2,4]triazolo[4,3-a]pyridin-7-yl)-1H-pyrazol-1-yl]-N,N-dimethylethanamine] |
| ≥ 7.00 | ≥ 7.00 | Cc1nnc2ccc3c(cc(-c4ccn(C5(CC#N)CNC5)n4)n3Cc3ccccc3)n12 [Example 90, {3-[3-(6-benzyl-1-methyl-6H-pyrrolo[2,3-e][1,2,4]triazolo[4,3-a]pyridin-7-yl)-1H-pyrazol-1-yl]azetidin-3-yl}acetonitrile] |
| ≥ 7.00 | ≥ 7.00 | CC(=O)N1CC(CC#N)(n2ccc(-c3cc4c(ccc5nnc(C)n54)n3Cc3ccccc3)n2)C1 [Example 91, {1-acetyl-3-[3-(6-benzyl-1-methyl-6H-pyrrolo[2,3-e][1,2,4]triazolo[4,3-a]pyridin-7-yl)-1H-pyrazol-1-yl]azetidin-3-yl}acetonitrile] |
| ≥ 7.00 | ≥ 7.00 | Cc1nnc2ccc3c(cc(-c4ccn(C5(CC#N)CN(S(C)(=O)=O)C5)n4)n3Cc3ccccc3)n12 [Example 92, [3-[3-(6-benzyl-1-methyl-6H-pyrrolo[2,3-e][1,2,4]triazolo[4,3-a]pyridin-7-yl)-1H-pyrazol-1-yl]-1-(methylsulfonyl)azetidin-3-yl]acetonitrile] |
| ≥ 7.00 | ≥ 7.00 | Cc1nnc2ccc3c(cc(-c4ccn(C5(CC#N)CN(C)C5)n4)n3Cc3ccccc3)n12 [Example 93, {3-[3-(6-benzyl-1-methyl-6H-pyrrolo[2,3-e][1,2,4]triazolo[4,3-a]pyridin-7-yl)-1H-pyrazol-1-yl]-1-methylazetidin-3-yl}acetonitrile] |
| 6.00 to 7.00 | 6.00 to 7.00 | Cc1nnc2ccc3c(cc(C(=O)N(C)C)n3Cc3ccccc3)n12 [Example 94, 6-benzyl-N,N,1-trimethyl-6H-pyrrolo[2,3-e][1,2,4]triazolo[4,3-a]pyridine-7-carboxamide] |
| ≥ 7.00 | ≥ 7.00 | Cc1nnc2ccc3c(cc(-c4ccn(CCC(=O)N(C)C)n4)n3Cc3ccccc3)n12 [Example 95, 3-[3-(6-benzyl-1-methyl-6H-pyrrolo[2,3-e][1,2,4]triazolo[4,3-a]pyridin-7-yl)-1H-pyrazol-1-yl]-N,N-dimethylpropanamide] |
| ≥ 7.00 | ≥ 7.00 | CCNC(=O)CCn1ccc(-c2cc3c(ccc4nnc(C)n43)n2Cc2ccccc2)n1 [Example 96, 3-[3-(6-benzyl-1-methyl-6H-pyrrolo[2,3-e][1,2,4]triazolo[4,3-a]pyridin-7-yl)-1H-pyrazol-1-yl]-N-ethylpropanamide] |
| ≥ 7.00 | ≥ 7.00 | Cc1nnc2ccc3c(cc(-c4ccn(CCC(N)=O)n4)n3Cc3ccccc3)n12 [Example 98, 3-[3-(6-benzyl-1-methyl-6H-pyrrolo[2,3-e][1,2,4]triazolo[4,3-a]pyridin-7-yl)-1H-pyrazol-1-yl]propanamide] |
| ≥ 7.00 | ≥ 7.00 | CNC(=O)c1cc2c(ccc3nnc(C)n32)n1Cc1cccc(Cl)c1 [Example 99, 6-(3-chlorobenzyl)-N,1-dimethyl-6H-pyrrolo[2,3-e][1,2,4]triazolo[4,3-a]pyridine-7-carboxamide] |
| ≥ 7.00 | ≥ 7.00 | Cc1nnc2ccc3c(cc(C(=O)N[C@H]4C[C@H](C#N)C4)n3Cc3ccccc3)n12 [Example 100, 6-benzyl-N-(trans-3-cyanocyclobutyl)-1-methyl-6H-pyrrolo[2,3-e][1,2,4]triazolo[4,3-a]pyridine-7-carboxamide] |
| 6.00 to 7.00 | 6.00 to 7.00 | Cc1nnc2ccc3c(cc(C(=O)N[C@H]4C[C@@H](C#N)C4)n3Cc3ccccc3)n12 [Example 101, 6-benzyl-N-(cis-3-cyanocyclobutyl)-1-methyl-6H-pyrrolo[2,3-e][1,2,4]triazolo[4,3-a]pyridine-7-carboxamide] |
| ≥ 7.00 | ≥ 7.00 | CNC(=O)c1cc2c(ccc3nnc(C)n32)n1Cc1cccc(F)c1 [Example 102, 6-(3-fluorobenzyl)-N,1-dimethyl-6H-pyrrolo[2,3-e][1,2,4]triazolo[4,3-a]pyridine-7-carboxamide] |
| ≥ 7.00 | ≥ 7.00 | Cc1nnc2ccc3c(cc(-c4ccn(CCC(=O)N5CCC5)n4)n3Cc3cccc(Cl)c3)n12 [Example 104, 7-[1-(3-azetidin-1-yl-3-oxopropyl)-1H-pyrazol-3-yl]-6-(3-chlorobenzyl)-1-methyl-6H-pyrrolo[2,3-e][1,2,4]triazolo[4,3-a]pyridine] |

| SMILES | pIC50 (BRD4-BD1) | pIC50 (BRD4-BD2) |
| --- | --- | --- |
| Cc1nnc2ccc3c(cc(-c4ccn(CCC(=O)N(C)C)n4)n3Cc3cccc(Cl)c3)n12 [Example 103, 3-{3-[6-(3-chlorobenzyl)-1-methyl-6H-pyrrolo[2,3-e][1,2,4]triazolo[4,3-a]pyridin-7-yl]-1H-pyrazol-1-yl}-N,N-dimethylpropanamide] | ≥ 7.00 | ≥ 7.00 |
